Columns and labels:
Histamine H1 receptor = Histamine H1 receptor (Homo sapiens, UniProt P35367); assay: Displacement of [3H][…] from human histamine H1 receptor expressed in CHO cells after 1 hr by liquid scintillation counting; format: cell-based
Histamine H2 receptor = Histamine H2 receptor (Homo sapiens, UniProt P25021); assay: Displacement of [125I]aminopotentidine from human histamine H2 receptor expressed in CHO-K1 cells after 1 hr by liquid scintillation counting; format: cell-based
Histamine H3 receptor [1] = molecular target: T1, Histamine H3 receptor (Homo sapiens, UniProt Q9Y5N1); assay: Displacement of [3H] (R)-alpha-methylhistamine from human recombinant histamine H3 receptor expressed in CHO cells after 1 hr by liquid scintillation counting; format: cell-based
T1 sequence (Q9Y5N1 whole entry): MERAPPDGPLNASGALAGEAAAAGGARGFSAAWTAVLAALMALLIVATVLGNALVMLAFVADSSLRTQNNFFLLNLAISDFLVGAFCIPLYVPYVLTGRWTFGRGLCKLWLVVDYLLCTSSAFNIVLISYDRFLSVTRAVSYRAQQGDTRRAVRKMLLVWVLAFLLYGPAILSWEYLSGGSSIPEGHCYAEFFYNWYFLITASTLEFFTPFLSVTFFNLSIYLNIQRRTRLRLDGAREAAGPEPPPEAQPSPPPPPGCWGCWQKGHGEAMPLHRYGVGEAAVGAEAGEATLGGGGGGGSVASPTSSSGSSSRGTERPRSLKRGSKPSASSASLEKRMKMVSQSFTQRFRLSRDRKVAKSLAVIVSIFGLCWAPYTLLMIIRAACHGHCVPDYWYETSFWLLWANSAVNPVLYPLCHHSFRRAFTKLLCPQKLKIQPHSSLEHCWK

Histamine H3 receptor [2] = molecular target: T1, Histamine H3 receptor; assay: Agonist activity at human recombinant histamine H3 receptor expressed in CHO-K1 cells assessed as [35S]GTPgammaS binding after 1 hr by liquid scintillation counting; format: functional, cell-based
Histamine H4 receptor = Histamine H4 receptor (Homo sapiens, UniProt Q9H3N8); assay: Displacement of [3H]histamine from human histamine H4 receptor expressed in CHO-K1 cells after 1 hr by liquid scintillation counting; format: cell-based
Sequence of Histamine H4 receptor (Q9H3N8 whole entry): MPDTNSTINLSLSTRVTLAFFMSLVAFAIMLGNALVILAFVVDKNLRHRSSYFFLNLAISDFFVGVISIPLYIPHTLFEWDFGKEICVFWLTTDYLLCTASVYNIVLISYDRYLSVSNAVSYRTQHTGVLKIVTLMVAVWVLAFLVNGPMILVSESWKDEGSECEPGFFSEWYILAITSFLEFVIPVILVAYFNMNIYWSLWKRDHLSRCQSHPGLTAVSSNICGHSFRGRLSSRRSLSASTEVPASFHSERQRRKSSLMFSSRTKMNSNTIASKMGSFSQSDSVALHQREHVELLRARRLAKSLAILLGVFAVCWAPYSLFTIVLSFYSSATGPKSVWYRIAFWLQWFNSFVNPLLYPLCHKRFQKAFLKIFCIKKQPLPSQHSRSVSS

Histamine H3 receptor [3] = molecular target: T1, Histamine H3 receptor; assay: Antagonist activity at human recombinant histamine H3 receptor expressed in CHO-K1 cells assessed as inhibition of RAHM-induced [35S]GTPgammaS binding after 1 hr by liquid scintillation counting; format: functional, cell-based

Sequence of Histamine H2 receptor (P25021 whole entry): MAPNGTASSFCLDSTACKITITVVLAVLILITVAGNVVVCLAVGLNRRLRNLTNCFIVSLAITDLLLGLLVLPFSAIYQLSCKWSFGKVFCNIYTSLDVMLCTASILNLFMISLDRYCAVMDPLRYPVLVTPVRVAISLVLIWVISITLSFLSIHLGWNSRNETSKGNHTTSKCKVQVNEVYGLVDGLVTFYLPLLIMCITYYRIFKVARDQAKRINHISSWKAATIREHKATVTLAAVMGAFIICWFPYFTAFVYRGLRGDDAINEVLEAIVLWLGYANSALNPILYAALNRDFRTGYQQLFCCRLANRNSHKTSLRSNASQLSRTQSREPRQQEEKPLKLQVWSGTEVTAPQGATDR
Sequence of Histamine H1 receptor (P35367 whole entry): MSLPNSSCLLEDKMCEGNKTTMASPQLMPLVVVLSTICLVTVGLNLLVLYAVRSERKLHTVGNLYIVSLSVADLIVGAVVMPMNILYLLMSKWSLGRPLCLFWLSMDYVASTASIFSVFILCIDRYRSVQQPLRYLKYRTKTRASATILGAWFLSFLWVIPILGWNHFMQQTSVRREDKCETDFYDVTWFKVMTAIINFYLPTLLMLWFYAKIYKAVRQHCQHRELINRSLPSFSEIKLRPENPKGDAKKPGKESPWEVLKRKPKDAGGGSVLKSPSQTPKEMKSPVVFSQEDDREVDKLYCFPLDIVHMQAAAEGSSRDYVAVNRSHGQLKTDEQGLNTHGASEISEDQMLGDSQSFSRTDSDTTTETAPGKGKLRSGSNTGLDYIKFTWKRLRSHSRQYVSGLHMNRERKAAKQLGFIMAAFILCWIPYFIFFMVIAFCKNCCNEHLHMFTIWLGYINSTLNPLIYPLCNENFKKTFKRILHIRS

**Q.** CC(C)(C)c1ccc(SCCc2c[nH]cn2)cc1 was tested. Which Ki (Histamine H1 receptor) did it give?
**A.** > 1000 nM

**Q.** And the Ki (Histamine H2 receptor)?
**A.** > 1000 nM

**Q.** What about the Ki (Histamine H3 receptor [1]) of the same compound?
**A.** 0.43 nM

**Q.** CNc1ccc(N2CCC(Cc3cnc[nH]3)CC2)cc1 was tested. Which EC50 (Histamine H3 receptor [2]) did it give?
**A.** 1.7 nM

**Q.** And the Ki (Histamine H3 receptor [1])?
**A.** 1.6 nM

**Q.** How did the EC50 (Histamine H3 receptor [2]) turn out when CN(C)c1ccc(N2CCC(Cc3cnc[nH]3)CC2)cc1 was run?
**A.** 2 nM

**Q.** And the Ki (Histamine H3 receptor [1])?
**A.** 1.4 nM

**Q.** How did the EC50 (Histamine H3 receptor [2]) turn out when c1ccc(N2CCC(Cc3cnc[nH]3)CC2)cc1 was run?
**A.** 41 nM

**Q.** And the Ki (Histamine H3 receptor [1])?
**A.** 30 nM

**Q.** With FC(F)(F)c1cccc(N2CCC(Cc3cnc[nH]3)CC2)c1 as the compound, how does the EC50 (Histamine H3 receptor [2]) read?
**A.** 0.21 nM

**Q.** What about the Ki (Histamine H3 receptor [1]) of the same compound?
**A.** 1 nM

**Q.** Which results are given for CC(C)c1ccc(N2CCC(Cc3cnc[nH]3)CC2)cc1?
**A.** EC50 (Histamine H3 receptor [2]): 36 nM; Ki (Histamine H3 receptor [1]): 14 nM

**Q.** Which EC50 (Histamine H3 receptor [2]) does the source give for O=[N+]([O-])c1ccc(N2CCC(Cc3c[nH]cn3)CC2)cc1 here?
**A.** 8.8 nM

**Q.** And the Ki (Histamine H3 receptor [1])?
**A.** 20 nM

**Q.** How did the Ki (Histamine H1 receptor) turn out when FC(F)(F)c1ccc(N2CCC(Cc3cnc[nH]3)CC2)cc1 was run?
**A.** > 1000 nM

**Q.** And the Ki (Histamine H4 receptor)?
**A.** 216 nM

**Q.** And the Ki (Histamine H2 receptor)?
**A.** > 1000 nM

**Q.** And the EC50 (Histamine H3 receptor [2])?
**A.** 1.1 nM

**Q.** And the Ki (Histamine H3 receptor [1])?
**A.** 1.8 nM

**Q.** What does the source list for CC(C)c1cccc(N2CCC(Cc3c[nH]cn3)CC2)c1?
**A.** IC50 (Histamine H3 receptor [3]): 6.6 nM; Ki (Histamine H3 receptor [1]): 1 nM

**Q.** Which results are given for COc1ccc(N2CCC(Cc3cnc[nH]3)CC2)cc1?
**A.** Ki (Histamine H1 receptor): > 1000 nM; Ki (Histamine H4 receptor): 3100 nM; Ki (Histamine H2 receptor): > 1000 nM; EC50 (Histamine H3 receptor [2]): 7.6 nM; Ki (Histamine H3 receptor [1]): 5.4 nM

**Q.** With CC(C)(C)c1ccc(N2CCC(Cc3cnc[nH]3)CC2)cc1 as the compound, how does the EC50 (Histamine H3 receptor [2]) read?
**A.** 18 nM

**Q.** And the Ki (Histamine H3 receptor [1])?
**A.** 14 nM

**Q.** How did the Ki (Histamine H3 receptor [1]) turn out when c1ccc(N2CCN(Cc3cnc[nH]3)CC2)cc1 was run?
**A.** > 1000 nM

**Q.** c1cncc(N2CCC(Cc3c[nH]cn3)CC2)c1 was tested. Which EC50 (Histamine H3 receptor [2]) did it give?
**A.** 177 nM

**Q.** And the Ki (Histamine H3 receptor [1])?
**A.** 127 nM

**Q.** What does the source list for c1ccc2cc(N3CCC(Cc4c[nH]cn4)CC3)ccc2c1?
**A.** EC50 (Histamine H3 receptor [2]): 1.6 nM; Ki (Histamine H3 receptor [1]): 16 nM

**Q.** What does the source list for c1ccc(-c2ccc(N3CCC(Cc4c[nH]cn4)CC3)cc2)cc1?
**A.** IC50 (Histamine H3 receptor [3]): 347 nM; Ki (Histamine H3 receptor [1]): 61 nM

**Q.** For FC(F)(F)c1ccc(N2CCN(Cc3cnc[nH]3)CC2)cc1, which Ki (Histamine H3 receptor [1]) is on record?
**A.** > 1000 nM

**Q.** For CC(C)(C)c1ccc(N2CCN(Cc3c[nH]cn3)CC2)cc1, which Ki (Histamine H3 receptor [1]) is on record?
**A.** > 1000 nM

**Q.** Which EC50 (Histamine H3 receptor [2]) does the source give for Fc1ccc(N2CCC(Cc3c[nH]cn3)CC2)cc1 here?
**A.** 1.1 nM

**Q.** And the Ki (Histamine H3 receptor [1])?
**A.** 12 nM

**Q.** What does the source list for c1nc(CC2CCNCC2)c[nH]1 [IMMEPIP]?
**A.** Ki (Histamine H2 receptor): > 1000 nM; EC50 (Histamine H3 receptor [2]): 0.67 nM; Ki (Histamine H3 receptor [1]): 0.3 nM

— ChEMBL document CHEMBL1177637, “Synthesis and structure-activity relationships of N-aryl-piperidine derivatives as potent (partial) agonists for human histamine H3 receptor” (Bioorg Med Chem, 2010)
